Source: article PMC6394493 (Cancer Chemotherapy and Pharmacology, 2018)
Read-outs that look alike come from different tables or passages of the source.

Columns and labels:
[1] = Plasma pharmacokinetics (LC–MS/MS, non-compartmental analysis); type: in vivo, Japanese patients; conditions: for Cmax / Tmax / AUC(0-inf) / AUC(0-t): human, plasma, oral; for Cmax: read-out: Cmax, Median; for AUC(0-inf): read-out: AUCinf, Median
Experimental: The PK parameters were determined by non-compartmental analysis using Phoenix WinNonlin 6.2® (Pharsight, Mountain View, CA).

[2] = system: advanced solid tumors; assay: Tumor response per RECIST v1.0; type: in vivo, Japanese patients
Experimental: Tumor lesions were assessed by the investigators according to the RECIST guidelines, v1.0. Patients underwent screening using computed tomography (CT) or magnetic resonance imaging (MRI) scans. Screening was performed within 28 days of the first dose. The post-baseline RECIST assessments were performed every two cycles and then at the end of treatment.

Structure (SMILES): Cn1c(=O)n(-c2ccc(C(C)(C)C#N)cc2)c2c3cc(-c4cnc5ccccc5c4)ccc3ncc21 [BEZ235]
- Cmax ([1]; 800 mg, Cycle 1 Day 28, 800 mg qd, n = 3): 1980 ng/mL
- Tmax ([1]; 800 mg, Cycle 1 Day 28, 800 mg qd, n = 3, read-out: Tmax, Median): 2 h
- AUC(0-inf) ([1]; 1000 mg, Cycle 1 Day 1, 1000 mg qd, n = 3): 1410 ng·h/mL
- AUC(0-t) ([1]; 1000 mg, Cycle 1 Day 1, 1000 mg qd, n = 4, read-out: AUC0 − 24, Median): 4330 ng·h/mL
- AUC(0-t) ([1]; 1000 mg, Cycle 1 Day 1, 1000 mg qd, n = 6, read-out: AUClast, Median): 4490 ng·h/mL
- Cmax ([1]; 1000 mg, Cycle 1 Day 1, 1000 mg qd, n = 6): 472 ng/mL
- Tmax ([1]; 1000 mg, Cycle 1 Day 1, 1000 mg qd, n = 6, read-out: Tmax, Median): 5 h
- AUC(0-t) ([1]; 1000 mg, Cycle 1 Day 8, 1000 mg qd, n = 3, read-out: AUC0 − 24, Median): 8260 ng·h/mL
- AUC(0-inf) ([1]; 1000 mg, Cycle 1 Day 8, 1000 mg qd, n = 3): 8300 ng·h/mL
- AUC(0-t) ([1]; 1000 mg, Cycle 1 Day 8, 1000 mg qd, n = 7, read-out: AUClast, Median): 9350 ng·h/mL
- Cmax ([1]; 1000 mg, Cycle 1 Day 8, 1000 mg qd, n = 7): 912 ng/mL
- Tmax ([1]; 1000 mg, Cycle 1 Day 8, 1000 mg qd, n = 7, read-out: Tmax, Median): 6 h
- AUC(0-t) ([1]; 1000 mg, Cycle 1 Day 28, 1000 mg qd, n = 2, read-out: AUC0 − 24, Median): 3740 ng·h/mL
- AUC(0-inf) ([1]; 1000 mg, Cycle 1 Day 28, 1000 mg qd, n = 2): 3770 ng·h/mL
- AUC(0-t) ([1]; 1000 mg, Cycle 1 Day 28, 1000 mg qd, n = 4, read-out: AUClast, Median): 4800 ng·h/mL
- Cmax ([1]; 1000 mg, Cycle 1 Day 28, 1000 mg qd, n = 4): 548 ng/mL
- Tmax ([1]; 1000 mg, Cycle 1 Day 28, 1000 mg qd, n = 4, read-out: Tmax, Median): 4 h
- AUC(0-inf) ([1]; 1200 mg, Cycle 1 Day 1, 1200 mg qd, n = 1): 2290 ng·h/mL
- AUC(0-t) ([1]; 1200 mg, Cycle 1 Day 1, 1200 mg qd, n = 3, read-out: AUC0 − 24, Median): 6420 ng·h/mL
- AUC(0-t) ([1]; 1200 mg, Cycle 1 Day 1, 1200 mg qd, n = 5, read-out: AUClast, Median): 6420 ng·h/mL
- Cmax ([1]; 1200 mg, Cycle 1 Day 1, 1200 mg qd, n = 5): 403 ng/mL
- Tmax ([1]; 1200 mg, Cycle 1 Day 1, 1200 mg qd, n = 5, read-out: Tmax, Median): 6 h
- AUC(0-inf) ([1]; 1200 mg, Cycle 1 Day 8, 1200 mg qd, n = 1): 14400 ng·h/mL
- AUC(0-t) ([1]; 1200 mg, Cycle 1 Day 8, 1200 mg qd, n = 4, read-out: AUC0 − 24, Median): 34200 ng·h/mL
- AUC(0-t) ([1]; 1200 mg, Cycle 1 Day 8, 1200 mg qd, n = 4, read-out: AUClast, Median): 33500 ng·h/mL
- Cmax ([1]; 1200 mg, Cycle 1 Day 8, 1200 mg qd, n = 4): 1810 ng/mL
- Tmax ([1]; 1200 mg, Cycle 1 Day 8, 1200 mg qd, n = 4, read-out: Tmax, Median): 4 h
- AUC(0-t) ([1]; 1200 mg, Cycle 1 Day 28, 1200 mg qd, n = 1, read-out: AUC0 − 24, Median): 43400 ng·h/mL
- AUC(0-t) ([1]; 1200 mg, Cycle 1 Day 28, 1200 mg qd, n = 2, read-out: AUClast, Median): 37100 ng·h/mL
- Cmax ([1]; 1200 mg, Cycle 1 Day 28, 1200 mg qd, n = 2): 2170 ng/mL
- Tmax ([1]; 1200 mg, Cycle 1 Day 28, 1200 mg qd, n = 2, read-out: Tmax, Median): 5.9 h
- AUC(0-inf) ([1]; 1400 mg, Cycle 1 Day 1, 1400 mg qd, n = 1): 1290 ng·h/mL
- AUC(0-t) ([1]; 1400 mg, Cycle 1 Day 1, 1400 mg qd, n = 2, read-out: AUC0 − 24, Median): 13700 ng·h/mL
- AUC(0-t) ([1]; 1400 mg, Cycle 1 Day 1, 1400 mg qd, n = 5, read-out: AUClast, Median): 10200 ng·h/mL
- Cmax ([1]; 1400 mg, Cycle 1 Day 1, 1400 mg qd, n = 5): 733 ng/mL
- Tmax ([1]; 1400 mg, Cycle 1 Day 1, 1400 mg qd, n = 5, read-out: Tmax, Median): 8 h
- AUC(0-t) ([1]; 1400 mg, Cycle 1 Day 8, 1400 mg qd, n = 3, read-out: AUC0 − 24, Median): 36400 ng·h/mL
- AUC(0-t) ([1]; 1400 mg, Cycle 1 Day 8, 1400 mg qd, n = 5, read-out: AUClast, Median): 35900 ng·h/mL
- Cmax ([1]; 1400 mg, Cycle 1 Day 8, 1400 mg qd, n = 5): 2480 ng/mL
- Tmax ([1]; 1400 mg, Cycle 1 Day 8, 1400 mg qd, n = 5, read-out: Tmax, Median): 4 h
- AUC(0-inf) ([1]; 1400 mg, Cycle 1 Day 28, 1400 mg qd, n = 3): 30700 ng·h/mL
- AUC(0-t) ([1]; 1400 mg, Cycle 1 Day 28, 1400 mg qd, n = 4, read-out: AUC0 − 24, Median): 18300 ng·h/mL
- AUC(0-t) ([1]; 1400 mg, Cycle 1 Day 28, 1400 mg qd, n = 4, read-out: AUClast, Median): 18300 ng·h/mL
- Cmax ([1]; 1400 mg, Cycle 1 Day 28, 1400 mg qd, n = 4): 1510 ng/mL
- Tmax ([1]; 1400 mg, Cycle 1 Day 28, 1400 mg qd, n = 4, read-out: Tmax, Median): 4 h
- Tmax ([1]; across all dose levels and dosing schedules, Day 1, Day 8, Day 28 of Cycle 1, read-out: Median Tmax): ~4 h
- Tmax ([1]; all dose levels and dosing schedules, read-out: individual Tmax range): 1 to 24 h
- PK exposures on Day 8 versus Day 1 ([1]; qd and bid regimens, Cycle 1): at least threefold higher
- complete or partial responses (CR or PR) ([2]; all dose levels, qd and bid, 35 patients, RECIST v1.0): No complete or partial responses
- Stable disease (SD) as the best response ([2]; bid, 2 of 8 evaluable patients): 25.0%
- duration of continued treatment with SD ([2]; one patient with carcinoma of unknown primary, qd): 10 months
- Stable disease (SD) as the best response ([2]; qd, 14 of 27 evaluable patients): 51.9%
